Data taken from patent US20220331433A1, “NUCLEIC ACID-MEDIATED DELIVERY OF THERAPEUTICS” (The Regents of the University of California, priority 2019, published 2022).
Entries after “also recorded” stand apart in the source; their conditions may differ. Read-outs that look alike come from different tables or passages of the source.

Columns and labels:
[1] = Complete blood count and liver enzyme panel; format: in vivo; details: 20 mg/kg DOX or DOX equiv., tail vein, 24 h p.i., C57BL/6 mice, n=3
Procedure: Hematotoxicity and Liver Enzyme Panel. The mice used in this study were 6-12 week-old female C57BL/6/027 mice (Charles River Laboratories, Wilmington, Mass., USA). The mice were administered treatment via tail vein injection. After 24 h, complete blood count (CBC), and liver enzyme levels were measured. Blood for CBC was collected by saphenous vein collection, mixed with EDTA, and analyzed with a hematology analyzer for white blood cells (WBC), red blood cells (RBC), hemoglobin (Hgb), platelets (Plt) and hematocrit (HCT). For the liver enzyme panel, serum was isolated from blood and sent to IDEXX Laboratories, Inc. (Westbrook, Me.) for alkaline phosphatase (ALP), aspartate aminotransferase (AST), alanine aminotransferase (ALT), and total bilirubin analysis.
Complete blood count and liver enzyme panel of DOX/DNA and DOX. A complete blood count and liver enzyme panel were conducted in C57BL/6 mice treated with 20 mg/kg DOX, 20 mg/kg DOX equiv. of DOX/DNA, PBS, or 120 mg/kg DNA, n=3. […] After 24 h p.i., complete blood count (CBC), and liver enzyme levels were measured. Blood was collected by saphenous vein collection, mixed with EDTA, and analyzed with a hematology analyzer for white blood cells (WBC), red blood cells (RBC), hemoglobin (Hgb), platelets (Plt) and hematocrit (HCT). […]

EL4 cells [2] = assay: EL4 cytotoxicity, MTT assay; format: cell-based
Procedure: EL4 Cytotoxicity. EL4 cells (ATCC, Rockville, Md.) were plated at 10 k cells per well in a 96-well plate. The plated cells were treated in triplicate for 24, 48, or 72 hours with a range of concentrations of 0.001 μg/mL DOX or DOX equivalent to 10 μg/mL, followed by cellular viability analysis via MTT assay. Cells were incubated at 37° C., 5% CO2, and 100% humidity.
EL4 cells were treated in triplicate for 24, 48, and 72 hours with a range of concentrations, followed by cellular viability analysis via an MTT assay.

[3] = Pharmacokinetics in EL4-challenged C57BL/6 mice; format: in vivo
Procedure: Pharmacokinetics. […] Blood samples were collected from the saphenous vein of the mice at each time point, spun down in a serum collection tube, and the resultant supernatant was analyzed in acidified alcohol for DOX fluorescence using the Multi-Mode reader.
The mice were 6-8-week-old female mice.

EL4 cells [4] = assay: Endocytosis inhibition, EL4 cellular uptake; format: cell-based; details: inhibitors CPZ, Filipin III, EIPA, NaN3, PS2 or 4° C., 1 hour treatment
Procedure: Endocytosis Inhibition. EL4 DOX uptake from DOX or DOX/DNA treatment after exposure to inhibitors NaN3 (120 mM), PS2 (12 μg/mL), Filipin III (5 μg/mL), CPZ (20 μM), EIPA […], or 4° C. was measured using flow cytometry or spectrofluorimetry. Briefly, cells were primed for 15 minutes with the inhibitors before being treated for 1 hour with DOX or DOX/DNA. Cells containing DOX or DOX/DNA were counted with the flow cytometer using yellow fluorescence, and cells containing DOX/DNA were counted using spectrofluorimetry. Fluorescence was measured using a Guava® easyCyte™ Flow Cytometer (Millipore Sigma, Burlington, Mass.) or the Multi-Mode reader (Biotek Instruments, Winooski, Vt.).
Endocytosis inhibition and the effect on DOX/DNA and DOX uptake. The effect of inhibitors CPZ (20 μM), Fillipin III […], EIPA (20 μM), and various combinations thereof, or 4° C. on EL4 cellular uptake was evaluated for DOX/DNA (see FIG. 22). Chlorpromazine (CPZ) is a clathrin-dependent pathway inhibitor. […] The concentrations chosen for the assay were determined using a dose-response assay for each inhibitor.
DOX uptake by EL4 cells was tested with inhibitors: NaN3 (120 mM), PS2 (12 μg/mL), Filipin III (5 μg/mL), EIPA (20 μM), and 4° C. Uptake was measured using flow cytometry. […] Cells containing DOX were counted with the flow cytometer using yellow fluorescence.

[5] = Titration of DOX, DNA and DOX/DNA; format: physicochemical
Procedure: Titration of DOX, DNA, and DOX/DNA using a weak base. DOX, DNA or DOX/DNA were made in water at an initial volume of 1 mL. DOX equiv. at 600 μg/mL. The pH was then brought down below 2 with 1 M HCl, then the pH was adjusted higher using small volumes (100 μL or 20 μL) of 0.1 M NaOH.

[6] = Acute toxicity survival in C57BL/6 mice; details: 40 mg/kg dose, n=7
[7] = DNA degradation in 10% FBS/PBS (agarose gel); format: physicochemical; details: 37° C., 0 to 48 h, [DNA] 100 μg/mL
Procedure: DNA Degradation in 10% FBS/PBS. A 1% (w/v) agarose gel in 1×Tris Acetate EDTA (TAE) containing 1 μg/mL ethidium bromide was used to characterize the degradation of DNA in 10% FBS/PBS over 48 hours. DNA was incubated with serum-containing PBS at 37° C. over time. Samples were stored in −20° C. to stop enzymatic degradation from nucleases at each time point. The concentration of DNA=100 μg/mL. The gel was run at 100 V for 40 minutes and DNA was imaged on a UV transilluminator (Fotodyne, Heartland, Wis.).
DNA Degradation in 10% FBS/PBS. To determine the stability of the DNA to serum exposure, DNA (100 μg/mL) was incubated with serum-containing PBS at 37° C. over a time period of 0 to 48 h. Samples were stored in −20° C. to stop enzymatic degradation from nucleases at each time point. […] It is likely that the nucleases in the serum-containing media are contributing to the degradation of DNA. It is possible to infer a delayed release of DOX due to this degradation of DNA overtime in 10% FBS.

[8] = Stability of DNA in water and PBS (TEM); format: physicochemical; details: [DNA] 6 μg/mL
Procedure: Stability of DNA in water and PBS. DNA was prepared in PBS and diluted in H2O and then imaged. Final [DNA]=6 μg/mL.

Stability in water or PBS [8] | Substance | Effect on circulating blood cells and liver enzymes [1] | IC50 (EL4 cells [2]; 24 h incubation) | IC50 (EL4 cells [2]; 24 h incubation, read-out: IC50) | IC50 (EL4 cells [2]; 48 h incubation) | IC50 (EL4 cells [2]; 72 h incubation) | Blood circulation residence half-life T1/2 ([3]; 20 mg/kg DOX or DOX equiv. i.v., n=3) | Time of absorption by the tissue ([3]; 20 mg/kg i.v.) | Cellular uptake pathway (EL4 cells [4]) | pKa (amine) [5] | pKa (estimated) [5] | pKa (phenol) [5] | Acute toxicity [6] | Degradation in serum [7]
– | Doxorubicin | greater impact | 0.313 µg/mL | 576 nM | 0.093 µg/mL | 0.048 µg/mL | 3 min | ~15 min | primarily via membrane fusion | 8.46 | 9.46 | 7.34 | acute toxicity (cardiac arrest) | –
largely stable | Deoxyribonucleic acid [DNA] | – | – | – | – | – | – | – | – | – | – | – | – | degraded serum in a time dependent manner; also recorded: degraded overtime
